Laboratory results published in US10221173B2, “Chemical compounds” (AstraZeneca AB, priority 2017, dated 2019).
Values after ≈ are worked out from the molar mass of the structure shown.

Legend:
[1] = Thermodynamic solubility (shake-flask); assay type: physicochemical; conditions: aqueous phosphate buffer, 25 °C, pH 7.4, aqueous buffer, thermodynamic from solid, phosphate buffer pH 7.4, 24 hours
[2] = molecular target: Estrogen Receptor (ERα) in MCF-7 cells (Homo sapiens (Human), UniProt P03372); assay: MCF-7 ER down-regulation assay (immuno-fluorescence); assay type: cell-based
[3] = molecular target: recombinant human Estrogen Receptor alpha ligand binding domain (ER alpha-LBD (GST)) (Homo sapiens (Human), UniProt P03372); assay: ERα binding assay (LanthaScreen TR-FRET competition)
Chain of recombinant human Estrogen Receptor alpha ligand binding domain (ER alpha-LBD (GST)) (P03372 307-554): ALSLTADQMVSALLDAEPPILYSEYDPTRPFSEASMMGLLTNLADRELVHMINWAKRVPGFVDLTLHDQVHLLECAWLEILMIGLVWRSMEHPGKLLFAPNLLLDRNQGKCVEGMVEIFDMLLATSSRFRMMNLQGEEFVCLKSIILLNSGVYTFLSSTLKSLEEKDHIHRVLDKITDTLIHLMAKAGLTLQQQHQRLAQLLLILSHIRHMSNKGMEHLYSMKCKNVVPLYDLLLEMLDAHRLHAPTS

Chain of Estrogen Receptor (ERα) in MCF-7 cells (P03372 whole entry, the tested form may be a part): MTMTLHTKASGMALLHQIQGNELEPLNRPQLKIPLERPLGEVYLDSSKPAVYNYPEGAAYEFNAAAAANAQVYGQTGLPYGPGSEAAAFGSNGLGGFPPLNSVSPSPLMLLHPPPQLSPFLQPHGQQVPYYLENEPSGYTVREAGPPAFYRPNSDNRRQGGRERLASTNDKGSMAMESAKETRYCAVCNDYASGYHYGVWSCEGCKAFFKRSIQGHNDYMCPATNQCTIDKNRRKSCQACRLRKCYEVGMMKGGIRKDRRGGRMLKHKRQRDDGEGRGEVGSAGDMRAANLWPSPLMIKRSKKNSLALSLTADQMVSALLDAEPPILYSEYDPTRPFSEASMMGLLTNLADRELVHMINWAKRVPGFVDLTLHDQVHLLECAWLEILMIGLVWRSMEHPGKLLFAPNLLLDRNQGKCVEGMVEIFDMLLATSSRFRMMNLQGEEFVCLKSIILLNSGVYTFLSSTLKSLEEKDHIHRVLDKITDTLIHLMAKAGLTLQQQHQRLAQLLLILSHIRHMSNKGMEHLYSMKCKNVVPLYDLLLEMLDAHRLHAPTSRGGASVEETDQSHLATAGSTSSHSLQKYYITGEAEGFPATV

solubility at 24 h [1] | SMILES | IC50 [2] | IC50 [3]
895 µM (≈ 419 µg/mL) | C[C@@H]1Cc2c([nH]c3ccccc23)[C@@H](c2cccc(NCCNCCCF)c2)N1CC1(F)COC1 [Example 2, N-1-(3-((1R,3R)-2-((3-fluorooxetan-3-yl)methyl)-3-methyl-2,3,4,9-tetrahydro-1H-pyrido[3,4-b]indol-1-yl)phenyl)-N-2-(3-fluoropropyl)ethane-1,2-diamine] |  | 
712 µM (≈ 344 µg/mL) | C[C@@H]1Cc2c([nH]c3ccccc23)[C@@H](c2cccc(N(C)CCNCCCF)c2)N1CC1(F)COC1 [Example 3, N-1-(3-((1R,3R)-2-((3-fluorooxetan-3-yl)methyl)-3-methyl-2,3,4,9-tetrahydro-1H-pyrido[3,4-b]indol-1-yl)phenyl)-N-2-(3-fluoropropyl)-N-1-methylethane-1,2-diamine] |  | 
68 µM (≈ 32.5 µg/mL) | Cc1ccc(OCCNCCCF)cc1[C@@H]1c2[nH]c3ccccc3c2C[C@@H](C)N1CC(F)(F)F [Example 17, 3-fluoro-N-(2-(4-methyl-3-((1R,3R)-3-methyl-2-(2,2,2-trifluoroethyl)-2,3,4,9-tetrahydro-1H-pyrido[3,4-b]indol-1-yl)phenoxy)ethyl)propan-1-amine] |  | 
27 µM (≈ 12.9 µg/mL) | Cc1cc(OCCNCCCF)cc([C@@H]2c3[nH]c4ccccc4c3C[C@@H](C)N2CC(F)(F)F)c1 [Example 18, 3-fluoro-N-(2-(3-methyl-5-((1R,3R)-3-methyl-2-(2,2,2-trifluoroethyl)-2,3,4,9-tetrahydro-1H-pyrido[3,4-b]indol-1-yl)phenoxy)ethyl)propan-1-amine] |  | 
5 µM (≈ 2.39 µg/mL) | Cc1ccc([C@@H]2c3[nH]c4ccccc4c3C[C@@H](C)N2CC(F)(F)F)cc1OCCNCCCF [Example 19, 3-fluoro-N-(2-(2-methyl-5-((1R,3R)-3-methyl-2-(2,2,2-trifluoroethyl)-2,3,4,9-tetrahydro-1H-pyrido[3,4-b]indol-1-yl)phenoxy)ethyl)propan-1-amine] |  | 
88 µM (≈ 42.4 µg/mL) | C[C@@H]1Cc2c([nH]c3ccccc23)[C@@H](c2cccc(OCCNCCCF)c2F)N1CC(F)(F)F [Example 24, 3-fluoro-N-(2-(2-fluoro-3-((1R,3R)-3-methyl-2-(2,2,2-trifluoroethyl)-2,3,4,9-tetrahydro-1H-pyrido[3,4-b]indol-1-yl)phenoxy)ethyl)propan-1-amine] |  | 
8 µM (≈ 3.96 µg/mL) | Cc1c(OCCNCCCF)ccc(F)c1[C@@H]1c2[nH]c3ccccc3c2C[C@@H](C)N1CC(F)(F)F [Example 33, 3-fluoro-N-(2-(4-fluoro-2-methyl-3-((1R,3R)-3-methyl-2-(2,2,2-trifluoroethyl)-2,3,4,9-tetrahydro-1H-pyrido[3,4-b]indol-1-yl)phenoxy)ethyl)propan-1-amine] |  | 
227 µM (≈ 115 µg/mL) | Cc1c(OCCNCCCF)ccc(F)c1[C@@H]1c2[nH]c3ccccc3c2C[C@@H](C)N1CC(F)(F)CO [Example 45, 2,2-difluoro-3-((1R,3R)-1-(6-fluoro-3-(2-((3-fluoropropyl)amino)ethoxy)-2-methylphenyl)-3-methyl-1,3,4,9-tetrahydro-2H-pyrido[3,4-b]indol-2-yl)propan-1-ol] |  | 
7 µM (≈ 3.37 µg/mL) | C[C@@H]1Cc2c([nH]c3ccccc23)[C@@H](c2cc(F)cc(OCCNCCCF)c2)N1CC(F)(F)F [Example 73, 3-fluoro-N-(2-(3-fluoro-5-((1R,3R)-3-methyl-2-(2,2,2-trifluoroethyl)-2,3,4,9-tetrahydro-1H-pyrido[3,4-b]indol-1-yl)phenoxy)ethyl)propan-1-amine] |  | 
0.9 µM (≈ 0.433 µg/mL) | C[C@@H]1Cc2c([nH]c3ccccc23)[C@@H](c2ccc(F)c(OCCNCCCF)c2)N1CC(F)(F)F [Example 74, 3-fluoro-N-(2-(2-fluoro-5-((1R,3R)-3-methyl-2-(2,2,2-trifluoroethyl)-2,3,4,9-tetrahydro-1H-pyrido[3,4-b]indol-1-yl)phenoxy)ethyl)propan-1-amine] |  | 
13 µM (≈ 6.44 µg/mL) | Cc1ccc(OCCNCCCF)c(F)c1[C@@H]1c2[nH]c3ccccc3c2C[C@@H](C)N1CC(F)(F)F [Example 80, 3-fluoro-N-(2-(2-fluoro-4-methyl-3-((1R,3R)-3-methyl-2-(2,2,2-trifluoroethyl)-2,3,4,9-tetrahydro-1H-pyrido[3,4-b]indol-1-yl)phenoxy)ethyl)propan-1-amine] |  | 
> 1000 µM | Cc1c(OCCNCCCF)ccc(F)c1[C@@H]1c2[nH]c3ccccc3c2C[C@@H](C)N1CCC(=O)O [Example 116, 3-((1R,3R)-1-(6-fluoro-3-(2-((3-fluoropropyl)amino)ethoxy)-2-methylphenyl)-3-methyl-1,3,4,9-tetrahydro-2H-pyrido[3,4-b]indol-2-yl)propanoic acid] |  | 
 | Cc1c(OCCN(C)CCCF)ccc(F)c1[C@@H]1c2[nH]c3ccc(F)cc3c2C[C@@H](C)N1C[C@H](C)C(=O)O [Example 146, (S)-3-((1R,3R)-6-fluoro-1-(6-fluoro-3-(2-((3-fluoropropyl)(methyl)amino)ethoxy)-2-methylphenyl)-3-methyl-1,3,4,9-tetrahydro-2H-pyrido[3,4-b]indol-2-yl)-2-methylpropanoic acid] | 0.4 nM | 1.1 nM
 | Cc1c(OCCN(C)CCCF)ncc(F)c1[C@@H]1c2[nH]c3ccc(F)cc3c2C[C@@H](C)N1C[C@@H](C)C(=O)O [Example 155, (2R)-3-[(1R,3R)-6-fluoro-1-[5-fluoro-2-[2-[3-fluoropropyl(methyl)amino]ethoxy]-3-methyl-4-pyridyl]-3-methyl-1,3,4,9-tetrahydropyrido[3,4-b]indol-2-yl]-2-methyl-propanoic acid] | 0.21 nM | 1 nM
 | Cc1c(OCCN(C)CCCF)ncc(F)c1[C@@H]1c2[nH]c3ccc(F)cc3c2C[C@@H](C)N1CCC(=O)O [Example 156, 3-((1R,3R)-6-fluoro-1-(5-fluoro-2-(2-((3-fluoropropyl)(methyl)amino)ethoxy)-3-methylpyridin-4-yl)-3-methyl-1,3,4,9-tetrahydro-2H-pyrido[3,4-b]indol-2-yl)propanoic acid] | 1.4 nM | 1.2 nM
 | Cc1c(OCCN(C)CCCF)ncc(F)c1[C@@H]1c2[nH]c3ccccc3c2C[C@@H](C)N1CCC(=O)O [Example 157, 3-((1R,3R)-1-(5-fluoro-2-(2-((3-fluoropropyl)(methyl)amino)ethoxy)-3-methylpyridin-4-yl)-3-methyl-1,3,4,9-tetrahydro-2H-pyrido[3,4-b]indol-2-yl)propanoic acid] | 1 nM | 1.8 nM
 | Cc1c(OCCN(C)CCCF)ccc(F)c1[C@@H]1c2[nH]c3ccc(F)cc3c2C[C@@H](C)N1C[C@@H](C)C(=O)O [Example 160, (R)-3-((1R,3R)-6-fluoro-1-(6-fluoro-3-(2-((3-fluoropropyl)(methyl)amino)ethoxy)-2-methylphenyl)-3-methyl-1,3,4,9-tetrahydro-2H-pyrido[3,4-b]indol-2-yl)-2-methylpropanoic acid] | 0.36 nM | 1.9 nM

SMILES | solubility at 24 h [1] | IC50 [2] | IC50 [3]
COc1c(OCCNCCCF)cccc1[C@@H]1c2[nH]c3ccccc3c2C[C@@H](C)N1CC1(F)COC1 [Example 5, 3-fluoro-N-(2-(3-((1R,3R)-2-((3-fluorooxetan-3-yl)methyl)-3-methyl-2,3,4,9-tetrahydro-1H-pyrido[3,4-b]indol-1-yl)-2-methoxyphenoxy)ethyl)propan-1-amine] | 357 µM (≈ 178 µg/mL) | 25 nM | 45 nM
